Molecules are shown by their SMILES.

This is an account of results in patent US11297838B2, “Pesticidal compositions and methods” (CORTEVA AGRISCIENCE LLC, priority 2018, dated 2022).

Assay [1] has as its system Cabbage Looper (Trichloplusia ni, TRIPNI). As to the kind of experiment: Insecticidal test for cabbage looper (CL), 128-well diet tray assay. Format: in vivo. The following applies: Trichoplusia ni, 168 h; 50 μg/cm^2 on artificial diet, second instar larvae, five to seven days, 25° C.; read-out: CL rating, % Control (or Mortality). How it is done:
Insecticidal Test for Cabbage Looper (Trichloplusia ni, TRIPNI) (“CL”)
Bioassays on cabbage looper (CL; Trichloplusia ni: Lepidoptera) are conducted using a 128-well diet tray assay. One to five second instar CL larvae are placed in each well (3 mL) of the diet tray that had been previously filled with 1 mL of artificial diet to which 50 μg/cm^2 of the test compound (dissolved in 50 μL of 90:10 acetone-water mixture) had been applied (to each of eight wells) and then allowed to dry. Trays are covered with a clear self-adhesive cover, vented to allow gas exchange, and held at 25° C., 14:10 light-dark for five to seven days. Percent mortality is recorded for the larvae in each well; activity in the eight wells is then averaged. In the reporting of the results, the “BAW & CL Rating Table” was used.

Assay [2] has as its system Beet Armyworm (Spodoptera exigua, LAPHEG). Put plainly: Insecticidal test for beet armyworm (BAW), 128-well diet tray assay. Format: in vivo. The following applies: 168 h, 50 μg/cm^2 on artificial diet, second instar larvae, five to seven days, 25° C., read-out: BAW rating, % Control (or Mortality). The procedure:
Insecticidal Test for Beet Armyworm (Spodoptera exigua, LAPHEG) (“BAW”)
Bioassays on beet armyworm (BAW; Spodoptera exigua: Lepidoptera) are conducted using a 128-well diet tray assay. One to five second instar BAW larvae are placed in each well (3 mL) of the diet tray that had been previously filled with 1 mL of artificial diet to which 50 μg/cm^2 of the test compound (dissolved in 50 μL of 90:10 acetone-water mixture) had been applied (to each of eight wells) and then allowed to dry. Trays are covered with a clear self-adhesive cover, vented to allow gas exchange, and held at 25° C., 14:10 light-dark for five to seven days. Percent mortality is recorded for the larvae in each well; activity in the eight wells is then averaged. In the reporting of the results, the “BAW & CL Rating Table” was used.

The mortality is the share of the test organisms that died. With `CCC(C)Oc1ccc(C)cc1N1C(=O)CS/C1=N\C(=O)OCC(F)c1ccc(-c2ncn(-c3ccc(OC(F)(F)F)cc3)n2)cc1` (centres unmarked) [A41, 2-Fluoro-2-(4-(1-(4-(trifluoromethoxy)phenyl)-1H-1,2,4-triazol-3-yl)phenyl)ethyl (Z)-(3-(2-(sec-butoxy)-5-methylphenyl)-4-oxothiazolidin-2-ylidene)carbamate], the mortality at 50 µg/cm2 in assay [1] and in assay [2] was 50 to 100% each time.
Take `CCC(C)c1ccc(OC)cc1N1C(=O)CS/C1=N\C(=O)OCCc1ccc(-c2ncn(-c3ccc(OC(F)(F)F)cc3)n2)cc1` (centres unmarked) [A28, 4-(1-(4-(Trifluoromethoxy)phenyl)-1H-1,2,4-triazol-3-yl)phenethyl (Z)-(3-(2-(sec-butyl)-5-methoxyphenyl)-4-oxothiazolidin-2-ylidene)carbamate]: the mortality at 50 µg/cm2 in assay [1] and in assay [2] was 50 to 100% throughout.
In the case of `Cc1ccc(OCC(F)(F)F)c(N2C(=O)CS/C2=N\C(=O)OCCc2ccc(-c3ncn(-c4ccc(OC(F)(F)F)cc4)n3)cc2)c1` [A31, 4-(1-(4-(Trifluoromethoxy)phenyl)-1H-1,2,4-triazol-3-yl)phenethyl (Z)-(3-(5-methyl-2-(2,2,2-trifluoroethoxy)phenyl)-4-oxothiazolidin-2-ylidene)carbamate], the mortality at 50 µg/cm2 in assay [1] and in assay [2] was 50 to 100% in each case.
As for `Cc1ccc(C(C)C)c(N2C(=O)CS/C2=N\C(=O)OCCc2ccc(-c3ncn(-c4ccc(OC(F)(F)F)cc4)n3)cc2)c1` [A1, 4-(1-(4-(trifluoromethoxy)phenyl)-1H-1,2,4-triazol-3-yl)phenethyl (Z)-(3-(2-isopropyl-5-methylphenyl)-4-oxothiazolidin-2-ylidene)carbamate], the mortality at 50 µg/cm2 in assay [1] and in assay [2] was 50 to 100% in each case.
For the compound `CC(C)c1ccccc1N1C(=O)CS/C1=N\C(=O)OCCc1ccc(-c2ncn(-c3ccc(OC(F)(F)C(F)(F)F)cc3)n2)cc1` [A45, 4-(1-(4-(Perfluoroethoxy)phenyl)-1H-1,2,4-triazol-3-yl)phenethyl (Z)-(3-(2-isopropylphenyl)-4-oxothiazolidin-2-ylidene)carbamate], the mortality at 50 µg/cm2 in assay [1] and in assay [2] was 50 to 100% in each case.
On to `Cc1ccc(C(C)C)c(-n2ccs/c2=N\C(=O)OCC(F)c2ccc(-c3ncn(-c4ccc(OC(F)(F)F)cc4)n3)cc2)c1` (centres unmarked) [A54, 2-Fluoro-2-(4-(1-(4-(trifluoromethoxy)phenyl)-1H-1,2,4-triazol-3-yl)phenyl)ethyl (Z)-(3-(2-isopropyl-5-methylphenyl)thiazol-2(3H)-ylidene)carbamate], for which the mortality at 50 µg/cm2 in assay [1] and in assay [2] was 50 to 100% in each case.
For the compound `CC(C)c1ccccc1N1C(=O)CS/C1=N\C(=O)OCC(Cl)c1ccc(-c2ncn(-c3ccc(OC(F)(F)F)cc3)n2)cc1` (centres unmarked) [A47, 2-Chloro-2-(4-(1-(4-(trifluoromethoxy)phenyl)-1H-1,2,4-triazol-3-yl)phenyl)ethyl (Z)-(3-(2-isopropylphenyl)-4-oxothiazolidin-2-ylidene)carbamate], the mortality at 50 µg/cm2 in assay [1] and in assay [2] was 50 to 100% throughout.
On to `CCc1cccc(C)c1N1C(=O)CS/C1=N\C(=O)OCC(F)c1ccc(-c2ncn(-c3ccc(OC(F)(F)F)cc3)n2)cc1` (centres unmarked) [A42, 2-Fluoro-2-(4-(1-(4-(trifluoromethoxy)phenyl)-1H-1,2,4-triazol-3-yl)phenyl)ethyl (Z)-(3-(2-ethyl-6-methylphenyl)-4-oxothiazolidin-2-ylidene)carbamate], for which the mortality at 50 µg/cm2 in assay [1] lay within 50 to 100%; in assay [2], 0 to 50%.
Taken in the same sequence, the figures for `Cc1cc(Cl)c(N2C(=O)CS/C2=N\C(=O)OCC(F)c2ccc(-c3ncn(-c4ccc(OC(F)(F)F)cc4)n3)cc2)cc1C` (centres unmarked) [A38, 2-Fluoro-2-(4-(1-(4-(trifluoromethoxy)phenyl)-1H-1,2,4-triazol-3-yl)phenyl)ethyl (Z)-(3-(2-chloro-4,5-dimethylphenyl)-4-oxothiazolidin-2-ylidene)carbamate] were 50 to 100% and 0%.
Taken in the same sequence, the figures for `CC(C)c1ccccc1N1C(=O)CS/C1=N\C(=O)OCC(F)c1ccc(-c2ncn(-c3ccc(OC(F)(F)F)cc3)n2)cc1` (centres unmarked) [A34, 2-Fluoro-2-(4-(1-(4-(trifluoromethoxy)phenyl)-1H-1,2,4-triazol-3-yl)phenyl)ethyl (Z)-(3-(2-isopropylphenyl)-4-oxothiazolidin-2-ylidene)carbamate] were 50 to 100% and 50 to 100%.
On to `CC(Cc1ccc(-c2ncn(-c3ccc(OC(F)(F)F)cc3)n2)cc1)OC(=O)/N=C1\SCC(=O)N1c1ccccc1C(C)C` (centres unmarked) [A50, 1-(4-(1-(4-(Trifluoromethoxy)phenyl)-1H-1,2,4-triazol-3-yl)phenyl)propan-2-yl (Z)-(3-(2-isopropylphenyl)-4-oxothiazolidin-2-ylidene)carbamate], for which the mortality at 50 µg/cm2 in assay [1] and in assay [2] was 50 to 100% throughout.
Turning to `Cc1ccc(C(C)C)c(N2C(=O)CS/C2=N\C(=O)OCC(F)(F)c2ccc(-c3ncn(-c4ccc(OC(F)(F)F)cc4)n3)cc2)c1` [A4, 2,2-difluoro-2-(4-(1-(4-(trifluoromethoxy)phenyl)-1H-1,2,4-triazol-3-yl)phenyl)ethyl (Z)-(3-(2-isopropyl-5-methylphenyl)-4-oxothiazolidin-2-ylidene)carbamate], the mortality at 50 µg/cm2 in assay [1] and in assay [2] was 50 to 100% in each case.
Consider `O=C(/N=C1\SCC(=O)N1c1cc(Cl)ccc1OCC(F)(F)F)OCC(F)c1ccc(-c2ncn(-c3ccc(OC(F)(F)F)cc3)n2)cc1` (centres unmarked) [A22, 2-Fluoro-2-(4-(1-(4-(trifluoromethoxy)phenyl)-1H-1,2,4-triazol-3-yl)phenyl)ethyl (Z)-(3-(5-chloro-2-(2,2,2-trifluoroethoxy)phenyl)-4-oxothiazolidin-2-ylidene)carbamate], for which the mortality at 50 µg/cm2 in assay [1] and in assay [2] was 50 to 100% throughout.
For the compound `O=C(/N=C1\SCC(=O)N1c1cc(Cl)ccc1OC(F)(F)F)OCCc1ccc(-c2ncn(-c3ccc(OC(F)(F)F)cc3)n2)cc1` [A29, 4-(1-(4-(Trifluoromethoxy)phenyl)-1H-1,2,4-triazol-3-yl)phenethyl (Z)-(3-(5-chloro-2-(trifluoromethoxy)phenyl)-4-oxothiazolidin-2-ylidene)carbamate], the mortality at 50 µg/cm2 in assay [1] and in assay [2] was 50 to 100% each time.
Turning to `CC(C)c1ccc(Cl)cc1N1C(=O)CS/C1=N\C(=O)OCC(Cl)c1ccc(-c2ncn(-c3ccc(OC(F)(F)F)cc3)n2)cc1` (centres unmarked) [A48, 2-Chloro-2-(4-(1-(4-(trifluoromethoxy)phenyl)-1H-1,2,4-triazol-3-yl)phenyl)ethyl (Z)-(3-(5-chloro-2-isopropylphenyl)-4-oxothiazolidin-2-ylidene)carbamate], the mortality at 50 µg/cm2 in assay [1] and in assay [2] was 50 to 100% throughout.
As to `CC(C)c1ccc(Cl)cc1N1C(=O)CS/C1=N\C(=O)OCCc1ccc(-c2ncn(-c3ccc(OC(F)(F)C(F)(F)F)cc3)n2)cc1` [A43, 4-(1-(4-(Perfluoroethoxy)phenyl)-1H-1,2,4-triazol-3-yl)phenethyl (Z)-(3-(5-chloro-2-isopropylphenyl)-4-oxothiazolidin-2-ylidene)carbamate], the mortality at 50 µg/cm2 in assay [1] was 0%; in assay [2] it was 50 to 100%.
Taken in the same sequence, the figures for `COc1ccc(N2C(=O)CS/C2=N\C(=O)OCC(F)c2ccc(-c3ncn(-c4ccc(OC(F)(F)F)cc4)n3)cc2)c(C)c1` (centres unmarked) [A37, 2-Fluoro-2-(4-(1-(4-(trifluoromethoxy)phenyl)-1H-1,2,4-triazol-3-yl)phenyl)ethyl (Z)-(3-(4-methoxy-2-methylphenyl)-4-oxothiazolidin-2-ylidene)carbamate] were 50 to 100% and 0%.
Consider `O=C(/N=C1\SCC(=O)N1c1cc(Cl)ccc1OC(F)(F)F)OCC(F)c1ccc(-c2ncn(-c3ccc(OC(F)(F)F)cc3)n2)cc1` (centres unmarked) [A36, 2-Fluoro-2-(4-(1-(4-(trifluoromethoxy)phenyl)-1H-1,2,4-triazol-3-yl)phenyl)ethyl (Z)-(3-(5-chloro-2-(trifluoromethoxy)phenyl)-4-oxothiazolidin-2-ylidene)carbamate], for which the mortality at 50 µg/cm2 in assay [1] and in assay [2] was 50 to 100% in each case.
With `Cc1ccc(OCC(F)(F)F)c(N2C(=O)CS/C2=N\C(=O)OCC(F)c2ccc(-c3ncn(-c4ccc(OC(F)(F)F)cc4)n3)cc2)c1` (centres unmarked) [A21, 2-Fluoro-2-(4-(1-(4-(trifluoromethoxy)phenyl)-1H-1,2,4-triazol-3-yl)phenyl)ethyl (Z)-(3-(5-methyl-2-(2,2,2-trifluoroethoxy)phenyl)-4-oxothiazolidin-2-ylidene)carbamate], the mortality at 50 µg/cm2 in assay [1] and in assay [2] was 50 to 100% each time.
